Laboratory results as given in US11760984B2, “CRISPR protein inhibitors” (THE BROAD INSTITUTE, INC., priority 2017, dated 2023).

Target: SpCas9 (Streptococcus pyogenes serotype M1, UniProt Q99ZW2)
Experiment: Cas9 nuclease activity in EGFP disruption assay (U2OS.eGFP.PEST cells)
Assay type: cell-based
Parameters: host or cells: U2OS.eGFP-PEST
Settings: 10 μM
Procedure: (§1) Cas9 Nuclease activity in EGFP disruption assay. Approximately 200,000 U2OS.eGFP-PEST cells were nucleofected with 400 ng of SpCas9 (Addgene Plasmid #43861) and 40 ng of sgRNA (pFYF1320 EGFP Site #1, Addgene Plasmid #47511) expressing plasmids along with a Td-tomato-encoding plasmid using the SE Cell Line 4D-Nucleofector™ X Kit (Lonza) according to the manufacturer's protocol. Approximately 20,000 transfected cells/well in 3 replicates were plated in a 96-well plate (Corning® 3904). Cells were allowed to grow in the indicated amount of compound or DMSO for 24 h post transfection. Cells were then fixed using 4% paraformaldehyde and imaged with the HCS NuclearMask™ Blue Stain (Life Technologies) as the nuclear counter-staining agent. Imaging was performed with an IXM 137204 ImageXpress Automated High Content Microscope (Molecular Devices) at 10× magnification under three excitation channels (blue, green and red) with 9 acquiring sites per well. Images were analyzed in the MetaXpress software and data were plotted using GraphPad Prism 6. The Z′-value was calculated following the formula: […]
Cas9 Nuclease activity in EGFP disruption assay. In some embodiments, a quantitative human cell-based reporter assay that enables rapid quantitation of targeted nuclease activities is used to characterize off-target cleavage of CRISPR protein-based RNA guided endonucleases. In this assay, the activities of nucleases targeted to a single integrated EGFP reporter gene can be quantified by assessing loss of fluorescence signal in human U2OS.EGFP cells caused by inactivating frameshift insertion/deletion (indel) mutations introduced by error prone non-homologous end-joining (NHEJ) repair of nuclease-induced double-stranded breaks (DSBs).
as §1, with “Approximately” for “Cas9 Nuclease activity in EGFP disruption assay. Approximately”

Chain of SpCas9 (Q99ZW2 whole entry): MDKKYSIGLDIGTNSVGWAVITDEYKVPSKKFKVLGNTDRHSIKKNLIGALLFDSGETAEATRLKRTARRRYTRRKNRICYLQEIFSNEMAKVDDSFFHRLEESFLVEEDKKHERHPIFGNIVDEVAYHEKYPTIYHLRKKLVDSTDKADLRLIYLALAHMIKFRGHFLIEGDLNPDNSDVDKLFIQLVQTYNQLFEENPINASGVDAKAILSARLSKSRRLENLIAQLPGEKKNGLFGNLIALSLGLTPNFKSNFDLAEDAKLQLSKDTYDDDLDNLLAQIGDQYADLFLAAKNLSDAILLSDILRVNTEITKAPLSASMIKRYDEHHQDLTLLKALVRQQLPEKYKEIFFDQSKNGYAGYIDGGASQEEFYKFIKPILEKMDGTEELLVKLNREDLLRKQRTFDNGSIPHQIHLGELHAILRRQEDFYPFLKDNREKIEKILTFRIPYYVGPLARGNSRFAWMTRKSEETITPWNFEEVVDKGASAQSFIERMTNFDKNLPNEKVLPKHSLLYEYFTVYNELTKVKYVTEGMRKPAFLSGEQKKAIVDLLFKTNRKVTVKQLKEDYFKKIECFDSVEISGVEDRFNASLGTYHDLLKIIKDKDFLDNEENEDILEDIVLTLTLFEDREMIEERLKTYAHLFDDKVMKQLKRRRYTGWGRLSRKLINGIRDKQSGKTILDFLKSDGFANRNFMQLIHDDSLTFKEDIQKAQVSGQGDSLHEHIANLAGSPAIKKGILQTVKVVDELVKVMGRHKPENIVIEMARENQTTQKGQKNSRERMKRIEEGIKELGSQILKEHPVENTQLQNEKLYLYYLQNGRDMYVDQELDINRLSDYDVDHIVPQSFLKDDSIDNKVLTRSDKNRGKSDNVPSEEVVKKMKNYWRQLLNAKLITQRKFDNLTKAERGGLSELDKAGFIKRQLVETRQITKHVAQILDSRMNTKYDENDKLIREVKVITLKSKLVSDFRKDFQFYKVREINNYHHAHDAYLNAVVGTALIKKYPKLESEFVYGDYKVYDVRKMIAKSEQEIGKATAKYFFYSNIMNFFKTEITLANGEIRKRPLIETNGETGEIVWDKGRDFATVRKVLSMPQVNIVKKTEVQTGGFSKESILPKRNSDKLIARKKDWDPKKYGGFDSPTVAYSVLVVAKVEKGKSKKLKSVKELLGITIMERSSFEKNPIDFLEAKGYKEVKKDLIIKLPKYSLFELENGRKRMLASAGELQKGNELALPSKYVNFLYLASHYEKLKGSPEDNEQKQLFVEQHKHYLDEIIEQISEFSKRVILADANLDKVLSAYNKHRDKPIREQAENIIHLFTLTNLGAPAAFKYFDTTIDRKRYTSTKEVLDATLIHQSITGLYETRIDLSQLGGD

## OC[C@H]1Nc2ccc(-c3cccc(F)c3)cc2[C@H]2[C@@H]1CCN2Cc1ccncc1 [BRD7087, ((3aR,4S,9bR)-8-(3-Fluorophenyl)-1-(pyridin-4-ylmethyl)-2,3,3a,4,5,9b-hexahydro-1H-pyrrolo[3,2-c]quinolin-4-yl)methanol]
  inhibition at 10 µM: 44%
  inhibition of SpCas9 activity: 44%
